Where a SMILES comes first, the peptide text is derived from it. Bridges are numbered along the chain shown (N, C = ends).
Experiments:
in vitro = details: for stability in reaction mixture with human serum: Experiment VIII, 10^−7 M, 37° C., 4 hours after the beginning of reaction
Method: The stabilities of the AM analog peptides in serum were evaluated with the same procedure as in Experiment I except the following procedure. […] A reaction mixture containing 4 μL of phosphate buffer, 20 μL of human serum (Sigma-Aldrich Co. LLC, USA), and 14 μL of water was prepared. To the reaction mixture, 2 μL of AM or an AM analog peptide (2×10^−6 M, final concentration: 10^−7 M) was added, and reaction was initiated at 37° C. The reaction was terminated by addition of 160 μL of ELISA buffer to the reaction mixture 0, 1, or 4 hours after the beginning of reaction. […] In the figure, the abscissa represents reaction time (hr), and the ordinate represents concentration in serum of AM or an AM analog (%) represented as relative values to concentration of AM or an AM analog at the beginning of reaction (i.e., 0 hours after the beginning of reaction).

[1] = target: T1, AM type 1 receptor (AMI receptor) (Homo sapiens, UniProt O60895+Q16602); assay: Intracellular cAMP production in HEK293 cells stably expressing AM type 1 receptor (Experiments V and IX); format: cell-based; details: for intracellular cAMP concentration-increasing activity: Experiment IX, addition at 10^−9 M or 10^−8 M, HEK293 cells
T1 construct: expressed in transfected cells; medium contains hygromycin B and Geneticin
T1 sequence (Q16602 23-461): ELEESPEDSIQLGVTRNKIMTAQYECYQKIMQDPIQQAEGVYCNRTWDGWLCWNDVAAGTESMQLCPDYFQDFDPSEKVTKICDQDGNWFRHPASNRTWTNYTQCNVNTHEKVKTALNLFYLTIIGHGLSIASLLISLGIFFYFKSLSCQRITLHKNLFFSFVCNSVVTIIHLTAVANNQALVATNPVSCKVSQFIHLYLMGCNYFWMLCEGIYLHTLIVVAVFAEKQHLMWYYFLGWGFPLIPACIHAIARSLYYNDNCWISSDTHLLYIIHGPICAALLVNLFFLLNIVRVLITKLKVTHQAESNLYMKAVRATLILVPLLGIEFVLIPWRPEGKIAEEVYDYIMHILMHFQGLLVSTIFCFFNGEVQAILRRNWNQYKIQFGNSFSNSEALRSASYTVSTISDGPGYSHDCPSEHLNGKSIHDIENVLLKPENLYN
T1 sequence (O60895 43-175): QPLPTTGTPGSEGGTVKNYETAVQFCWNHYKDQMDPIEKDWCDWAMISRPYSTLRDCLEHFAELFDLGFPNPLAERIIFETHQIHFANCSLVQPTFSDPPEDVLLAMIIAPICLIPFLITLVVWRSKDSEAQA
From the text: The adrenomedullin activity exerted by AM, shown above with examples, will be exerted via increased concentration of intracellular cAMP in normal cases. Thus, the increased concentration of intracellular cAMP can be considered as an index of the adrenomedullin activity of the compound according to the aspect. In each aspect of the invention, the effect of increasing concentration of intracellular cAMP can be evaluated, for example, by adding a target compound to a cultured cell line (HEK293 cell line) caused to stably express an AM type 1 receptor (AMI receptor) and measuring the amount of intracellular cAMP produced.
The physiological effect of AM is known to be exerted via increase in the concentration of intracellular cAMP (see Kitamura K et al., Biochem Biophys Res Commun, 30 Apr. 1993, Volume 192, Issue 2, pp. 553-560). Accordingly, each AM analog was added to a cultured cell line (HEK293 cell line) caused to stably express an AM type 1 receptor (AMI receptor), and the amount of intracellular cAMP produced was measured. HEK293 cells were cultured in Dulbecco's modified Eagle's medium (with 10% fetal bovine serum, 100 U/ml penicillin G, […] streptomycin, 0.25 mg/ml amphotericin B, […] hygromycin B, and […] Geneticin) in a fibronectin-coated 24-well plate (Thermo Fisher Scientific) (under 37° C., humidified, 5% CO2 conditions). After culturing for 3 days, 90%-confluent cells with accumulation of intracellular cAMP stimulated were subjected to experiment. The medium was exchanged with Hanks's balanced salt solution containing 20 mM 4-(2-hydroxyethyl)-1-piperazineethanesulfonic acid and 0.1% bovine serum albumin, AM or an AM analog was added to the cells in the presence of 0.5 mM isobutylmethylxanthine (IBMX), and the cells were incubated at 37° C. for 15 minutes. The reaction was terminated by addition of cell lysis buffer. Then, the amount of intracellular cAMP produced in the HEK293 cells of each well was measured using an ELISA kit for cAMP measurement (GE Healthcare Japan Corp., #RPN2251). […] In the figure, the abscissa represents logarithms of concentration of AM or an AM analog added (M), and the ordinate represents amounts of intracellular cAMP produced in HEK293 cells stably expressing an AMI receptor (fmol/well).
In the figure, the abscissa represents logarithms of concentration of AM or an AM analog added (M), and the ordinate represents amounts of intracellular cAMP produced in HEK293 cells stably expressing an AMI receptor (fmol/ml).

in vivo = details: for detection in rat plasma after subcutaneous administration: 50 nmol/kg subcutaneous, Experiment X; for Cmax: male, Wistar, rat, in vivo, sc, 50 nmol/kg
Method: Seven-week-old male Wistar rats were prepared, and grown with normal feeds. To determine plasma AM concentrations, 50 nmol/kg of AM or an AM analog was subcutaneously administered. A peripheral blood sample was collected from the tail vein into a Kantan tube® (containing heparin Na, Eiken Chemical Co., Ltd., Tochigi, Japan) at predetermined times (0, 15, 30, 60, and 120 minutes after administration). The tube was centrifuged at 2,000×g. Plasma was collected from the tube, and transferred into a test tube (containing 21 μg of aprotinin and 0.3 mg of EDTA-2Na) and stored. […] In the figure, the abscissa represents elapsed time after subcutaneous administration (hr), and the ordinate represents concentration in plasma of AM or an AM analog (pM). In addition, maximum concentrations in blood (Cmax) of AM or the AM analogs in rat plasma after subcutaneous administration were calculated.

Structure (SMILES) | stability in reaction mixture with human serum (in vitro) | EC50 [1] [nM] | intracellular cAMP concentration-increasing activity [1] | detection in rat plasma after subcutaneous administration (in vivo) | Cmax (in vivo) [nM] | remaining at 4 h (in vitro; human, serum) [%]
CC[C@H](C)[C@H](NC(=O)[C@H](CCC(N)=O)NC(=O)[C@H](Cc1c[nH]cn1)NC(=O)[C@H](C)NC(=O)[C@H](CC(C)C)NC(=O)[C@H](CCCCN)NC(=O)[C@H](CCC(N)=O)NC(=O)[C@@H](NC(=O)[C@@H](NC(=O)[C@@H]1CSSC[C@H](NC(=O)CNC(=O)[C@H](Cc2ccccc2)NC(=O)[C@@H](N)CO)C(=O)N[C@@H](CCCNC(=N)N)C(=O)N[C@@H](Cc2ccccc2)C(=O)NCC(=O)N[C@@H]([C@@H](C)O)C(=O)N1)[C@@H](C)O)C(C)C)C(=O)N[C@@H](Cc1ccc(O)cc1)C(=O)N[C@@H](CCC(N)=O)C(=O)N[C@@H](Cc1ccccc1)C(=O)N[C@H](C(=O)N[C@@H](CC(=O)O)C(=O)N[C@@H](CCCCN)C(=O)N[C@@H](CC(=O)O)C(=O)N[C@@H](CCCCN)C(=O)N[C@@H](CC(=O)O)C(=O)N[C@@H](CC(N)=O)C(=O)N[C@H](C(=O)N[C@@H](C)C(=O)N1CCC[C@H]1C(=O)N[C@@H](CC(=O)O)C(=O)N[C@@H](CO)C(=O)N[C@@H](CCCCN)C(=O)N[C@H](C(=O)N[C@@H](CO)C(=O)N1CCC[C@H]1C(=O)N[C@@H](CCC(N)=O)C(=O)NCC(=O)N[C@@H](Cc1ccc(O)cc1)C(N)=O)[C@@H](C)CC)C(C)C)[C@@H](C)O [[Asp-44]hAM(13-52), SFGCRFGTCTVQKLAHQIYQFTDKDKDNVAPDSKISPQGY-CONH2] (H-SFGCRFGTCTVQKLAHQIYQFTDKDKDNVAPDSKISPQGY-NH2; disulfide 4-9) | stable | – | – | – | – | –
CC[C@H](C)[C@H](NC(=O)[C@H](CCC(N)=O)NC(=O)[C@H](Cc1c[nH]cn1)NC(=O)[C@H](C)NC(=O)[C@H](CC(C)C)NC(=O)[C@H](CCCCN)NC(=O)[C@H](CCC(N)=O)NC(=O)[C@@H](NC(=O)[C@@H](NC(=O)[C@@H]1CSSC[C@H](NC(=O)CNC(=O)[C@H](Cc2ccccc2)NC(=O)[C@@H](N)CO)C(=O)N[C@@H](CCCNC(=N)N)C(=O)N[C@@H](Cc2ccccc2)C(=O)NCC(=O)N[C@@H]([C@@H](C)O)C(=O)N1)[C@@H](C)O)C(C)C)C(=O)N[C@@H](Cc1ccc(O)cc1)C(=O)N[C@@H](CCC(N)=O)C(=O)N[C@@H](Cc1ccccc1)C(=O)N[C@H](C(=O)N[C@@H](CC(=O)O)C(=O)N[C@@H](CCCCN)C(=O)N[C@@H](CC(=O)O)C(=O)N[C@@H](CCCCN)C(=O)N[C@@H](CC(=O)O)C(=O)N[C@@H](CC(N)=O)C(=O)N[C@H](C(=O)N[C@@H](C)C(=O)N1CCC[C@H]1C(=O)NCC(=O)N[C@@H](CO)C(=O)N[C@@H](CCCCN)C(=O)N[C@H](C(=O)N[C@@H](CO)C(=O)N1CCC[C@H]1C(=O)N[C@@H](CCC(N)=O)C(=O)NCC(=O)N[C@@H](Cc1ccc(O)cc1)C(N)=O)[C@@H](C)CC)C(C)C)[C@@H](C)O [[Gly-44]hAM(13-52), SFGCRFGTCTVQKLAHQIYQFTDKDKDNVAPGSKISPQGY-CONH2] (H-SFGCRFGTCTVQKLAHQIYQFTDKDKDNVAPGSKISPQGY-NH2; disulfide 4-9) | stable | 11 | approximately equivalent to that of hAM(1-52) or hAM(13-52) | detected in rat plasma 15 minutes after administration | 0.76 | –
CC[C@H](C)[C@H](NC(=O)[C@H](CCC(N)=O)NC(=O)[C@H](Cc1c[nH]cn1)NC(=O)[C@H](C)NC(=O)[C@H](CC(C)C)NC(=O)[C@H](CCCCN)NC(=O)[C@H](CCC(N)=O)NC(=O)[C@@H](NC(=O)[C@@H](NC(=O)[C@@H]1CSSC[C@H](NC(=O)CNC(=O)[C@H](Cc2ccccc2)NC(=O)[C@@H](N)CO)C(=O)N[C@@H](CCCNC(=N)N)C(=O)N[C@@H](Cc2ccccc2)C(=O)NCC(=O)N[C@@H]([C@@H](C)O)C(=O)N1)[C@@H](C)O)C(C)C)C(=O)N[C@@H](Cc1ccc(O)cc1)C(=O)N[C@@H](CCC(N)=O)C(=O)N[C@@H](Cc1ccccc1)C(=O)N[C@H](C(=O)N[C@@H](CC(=O)O)C(=O)N[C@@H](CCCCN)C(=O)N[C@@H](CC(=O)O)C(=O)N[C@@H](CCCCN)C(=O)N[C@@H](CC(=O)O)C(=O)N[C@@H](CC(N)=O)C(=O)N[C@H](C(=O)N[C@@H](C)C(=O)N1CCC[C@H]1C(=O)N[C@@H](Cc1ccccc1)C(=O)N[C@@H](CO)C(=O)N[C@@H](CCCCN)C(=O)N[C@H](C(=O)N[C@@H](CO)C(=O)N1CCC[C@H]1C(=O)N[C@@H](CCC(N)=O)C(=O)NCC(=O)N[C@@H](Cc1ccc(O)cc1)C(N)=O)[C@@H](C)CC)C(C)C)[C@@H](C)O [[Phe-44]hAM(13-52), SFGCRFGTCTVQKLAHQIYQFTDKDKDNVAPFSKISPQGY-CONH2] (H-SFGCRFGTCTVQKLAHQIYQFTDKDKDNVAPFSKISPQGY-NH2; disulfide 4-9) | stable | 5.13 | approximately equivalent to that of hAM(1-52) or hAM(13-52) | detected in rat plasma 15 minutes after administration | 0.323 | –
CC[C@H](C)[C@H](NC(=O)[C@H](CCC(N)=O)NC(=O)[C@H](Cc1c[nH]cn1)NC(=O)[C@H](C)NC(=O)[C@H](CC(C)C)NC(=O)[C@H](CCCCN)NC(=O)[C@H](CCC(N)=O)NC(=O)[C@@H](NC(=O)[C@@H](NC(=O)[C@@H]1CSSC[C@H](NC(=O)CNC(=O)[C@H](Cc2ccccc2)NC(=O)[C@@H](N)CO)C(=O)N[C@@H](CCCNC(=N)N)C(=O)N[C@@H](Cc2ccccc2)C(=O)NCC(=O)N[C@@H]([C@@H](C)O)C(=O)N1)[C@@H](C)O)C(C)C)C(=O)N[C@@H](Cc1ccc(O)cc1)C(=O)N[C@@H](CCC(N)=O)C(=O)N[C@@H](Cc1ccccc1)C(=O)N[C@H](C(=O)N[C@@H](CC(=O)O)C(=O)N[C@@H](CCCCN)C(=O)N[C@@H](CC(=O)O)C(=O)N[C@@H](CCCCN)C(=O)N[C@@H](CC(=O)O)C(=O)N[C@@H](CC(N)=O)C(=O)N[C@H](C(=O)N[C@@H](C)C(=O)N1CCC[C@H]1C(=O)N[C@@H](CCCNC(=N)N)C(=O)N1CCC[C@H]1C(=O)N[C@@H](CCCCN)C(=O)N[C@H](C(=O)N[C@@H](CO)C(=O)N1CCC[C@H]1C(=O)N[C@@H](CCC(N)=O)C(=O)NCC(=O)N[C@@H](Cc1ccc(O)cc1)C(N)=O)[C@@H](C)CC)C(C)C)[C@@H](C)O [[Pro-45]hAM(13-52), SFGCRFGTCTVQKLAHQIYQFTDKDKDNVAPRPKISPQGY-CONH2] (H-SFGCRFGTCTVQKLAHQIYQFTDKDKDNVAPRPKISPQGY-NH2; disulfide 4-9) | – | – | – | – | – | ~60
